Measured values published in a melting point compilation (Tetko et al.; mined from patent text by program, amines drawn as free bases though some values may be those of a salt).

| Structure (SMILES) | melting point [°C] |
| --- | --- |
| Cc1ccccc1-c1cc(=O)c(C)c(-c2ccccc2)n1-c1ccccc1 | 188 to 191 |
| CCc1nc2c(Br)cccc2cc1C | 54 |
| COc1c(N2CCC(n3cc(C)nn3)C2)c(F)cc2c(=O)c(C(=O)O)cn(C3CC3)c12 (configuration not stated) | 174 to 176 |
| COc1ccc2c(c1)N(C)C(=O)N(c1ccc(Cl)cc1)S2(=O)=O | 167 to 168 |
| Clc1ccc2c(c1)N(C1CN3CCC1CC3)c1ccccc1S2 (configuration not stated) | 165 |
| CN(C(=O)C(F)(F)F)c1cnc(-c2cncc(F)c2)s1 | 168 to 170 |
| CCCCNC(=O)C(Cc1ccccc1)NC(=O)Nc1n[nH]c(=S)s1 (configuration not stated) | 177 to 179 |
| O=C(NC1=NCCC1)Nc1ccc(Br)cc1 | 221 to 224 |
| COC(=O)CSC(c1ccccc1Cl)c1ccccc1Cl | 90 to 92 |
| CC(C)(C)c1cc(O)cc(C(C)(C)C)c1C=C1SC(NCO)=NC1=O | 177 to 179 |
| COC(=O)C(Sc1ccc(Cl)cc1)c1ccc(I)cc1 (configuration not stated) | 44 to 46 |
| O=C(O)Cc1cc(Cc2cccc(Oc3ccccc3)c2)ccc1Nc1c(Cl)cccc1Cl | 116 to 117 |
| CC(C(=O)n1c(=O)oc2ccccc21)C(O)c1ccccc1 (configuration not stated) | 155 to 158 |
| Nc1cccc(Oc2ccc(Oc3cccc(N)c3)cc2)c1 | 98 to 99 |
| CN(OCC(=O)O)C(=S)NC(c1ccccc1)c1ccccc1 | 160 to 162 |
| C=CCON=C(CCC)C1=C(O)CC(c2ccc(OC)c(NC(C)=O)c2)CC1=O (configuration not stated) | 136 to 137 |
| N#Cc1csc(N2C(=O)C(Cc3ccccc3)NC2=S)n1 (configuration not stated) | 214 to 216 |
| NCc1ccc(CN2CCN(c3ccccc3)CC2)cc1 | 68 to 70 |
| O=c1[nH]nc(Cc2ccc([N+](=O)[O-])cc2)o1 | 170 to 171 |
| O=C(O)c1cccc(-c2cccc3sc(Cc4cccc(C(F)(F)F)c4)nc23)c1 | 152 to 153 |
| CC(C)(C)OC(=O)n1cc(I)c2ccncc21 | 68 to 72 |
| O=C1c2ccccc2C(=O)N1CCCCC1N=NC(=S)N1 (configuration not stated) | 223 to 225 |
| CC(=O)N1CCN(c2c(C)c(C)c3c(c2C)C(c2ccc(C)cc2)C(C)(C)O3)CC1 (configuration not stated) | 272 to 274 |
| Cc1nc2nccc(Cl)c2cc1Br | 160 to 164 |

| Structure (SMILES) | melting point [°C] |
| --- | --- |
| CCOc1cc(N(CC)CC)ccc1C(=O)c1nc2ccccc2nc1C(=O)O | 175 to 176 |
| CC(NC(=O)c1cccnc1)c1ccccc1 (configuration not stated) | 88 to 89 |
| CC(C)CC1(C(C)C(=O)NO)CCN(CCc2ccccc2)C1=O (configuration not stated) | 107 to 108 |
| CCCNC(=O)COC1C(O)C(CO)OC(Oc2ccc(N)cc2)C1O (configuration not stated) | 154 |
| COc1ccc(C(=O)Cc2cccs2)cc1 | 44 to 45.5 |
| CCCCCCCCCCC1CCCC1C(=O)Nc1cccc2ncccc12 (configuration not stated) | 75 |
| COC(=O)c1cc(NC(=N)N)c(NC(C)=O)c(Br)c1O | 238 to 240 |
| O=C(CC1CCCC1)Nc1ccc2cccc(OS(=O)(=O)C(F)(F)F)c2c1 | 111 to 116 |
| COc1ccc(CNC(=O)c2cc3c(=O)n(Cc4ccc([N+](=O)[O-])nc4)c(=O)n(C)c3s2)cc1 | 238 to 241 |
| Cn1ccc(=O)c2ccc(F)cc21 | 146 to 149 |
| COC(=O)c1ccc(NC(=O)CCc2cnoc2-c2ccccc2)cc1 | 111 to 112 |
| CCCCN(CCCC)C(=S)Nc1ccc(NNC=O)cc1 | 139 to 141 |
| COc1ccc(-c2ccc(COCCc3cccc(NS(=O)(=O)C(F)(F)F)c3)cc2)cc1 | 96 to 98 |
| COC(=O)c1c(C(C)C)c(S(=O)(=O)c2ccc(O)cc2)c2ccccn12 | 199 |
| Cc1cc(C2(C(F)(F)F)ON=C(c3ccc(F)cc3)O2)ccc1N (configuration not stated) | 78 to 83 |
| COc1ccc2c(c1)c(-c1ccccc1)cc(=O)n2Cc1c(Cl)cncc1Cl | 191 to 192 |
| COC(=O)C(Oc1ccc(C(C)(C)C)cc1)c1ccc(Oc2ccc(Cl)cc2)cc1 (configuration not stated) | 118 to 120 |
| O=C1CCCc2cc(Sc3cccc(F)c3)ccc21 | 66.2 to 66.7 |
| CCCCCNC(=O)N(C)c1cccc(-c2ccc(CCC(=O)O)cc2)c1 | 100 to 102 |
| COc1ccc2c(CN(C)C)cc(=O)oc2c1 | 97 |
| N#CC1=C(C#N)Sc2nc3cc([N+](=O)[O-])c([N+](=O)[O-])cc3nc2S1 | 230 to 233 |
| Nc1ncc(-c2ccc(=O)[nH]n2)c(-c2ccco2)n1 | 262 to 268 |
| CCOC(=O)c1cn(Cc2ccccc2)nc1OCc1ccc(OCc2nc(-c3ccccc3)oc2C)c(OC)c1 | 154 to 155 |
| CC1=C(C(=O)O)C(c2cccc(Cl)c2Cl)C(c2nnco2)=C(C)N1 (configuration not stated) | 187 to 190 |

| Structure (SMILES) | melting point [°C] |
| --- | --- |
| CC(C)c1nnc(-c2ccc(-c3ccccc3)cc2)n1-c1ccccc1F | 201 to 204 |
| CC(C)(C)c1cc(C(O)c2ccccc2)cc(C(C)(C)C)c1O (configuration not stated) | 117 to 119 |
| O=C1NCCc2ccc(OCCCCN3CCN(c4cccc5c4CCCC5)CC3)nc2N1 | 185 to 186 |
| CCOC(=O)c1cnc2ccc(C3CCCCCC3)cc2c1Cl | 61 to 62 |
| COC(=O)c1cc(C(=O)OC)cc(-c2ccc(C=O)cc2)c1 | 166 to 169 |
| O=C(Nc1cc(Cl)ccc1O)Nc1cc(C(F)(F)F)ccc1Cl | 172 to 173 |
| Cc1nn(-c2ccc(F)cc2)cc1C(=O)Nc1ccc(OCC(C)C)c(C#N)c1 | 179 to 180 |
| CC(=O)c1cn(S(=O)(=O)c2ccccc2)c2nccc(Cl)c12 | 160 to 162 |
| CCc1nc2cnc3cc(OCC(=O)N4CCOCC4)ccc3c2n1CCOc1ccccc1 | 190 to 191 |
| CCCS(=O)(=O)NCC(O)(Cn1cncn1)c1ccc(Cl)cc1Cl (configuration not stated) | 128 to 129 |
| CCS(=O)(=O)N1CCC(NC(=O)Nc2ccc(OC(F)(F)F)cc2)CC1 | 235 to 239 |
| O=C(NC1CC1)c1[nH]c2ccc(Cl)cc2c1S(=O)(=O)c1ccccc1 | 242 to 243 |
| CS(=O)(=O)Nc1ccc(/C=C\COCCCCCCO)cc1 | 65 to 67 |
| COC1(c2ccc(Sc3ccc(C(=O)c4c(F)c(F)c(F)c(F)c4F)cc3)s2)CCOCC1 | 93 to 94 |
| Cc1nc(-c2sc(-c3ccc(Cl)cc3)nc2C)sc1C(=O)N[C@H](C)[C@](O)(Cn1cncn1)c1ccc(F)cc1F | 110 to 114 |
| CNc1cc(C(=O)O)ccc1C | 167 to 169 |
| CCN(CC)CCOc1ccc(Oc2ccc(S(C)(=O)=O)cc2)cc1 | 92.5 to 94 |
| O=C(Nc1ccccc1C(c1ccc(O)cc1)c1ccc(O)cc1)C12CC3CC(CC1C3)C2 | 155 to 157 |
| Clc1c(CBr)ccc2cc(CBr)ccc12 | 127 to 129 |
| C=CCCNS(=O)(=O)CC(=O)C1=C(C)NC(C)=C(C(=O)OC(C)C)C1c1cccc([N+](=O)[O-])c1 (configuration not stated) | 137 to 140 |
| O=S(=O)(Nc1c(F)cccc1F)c1nc2ncc(Cl)cn2n1 | 224 to 226 |
| CCCCc1cn(CCc2cccs2)c(=O)n1Cc1ccc(-c2ccccc2-c2nnn[nH]2)nc1 | 137 to 138 |
| Cc1ccc(S(=O)(=O)Sc2cc(C)c(CO)cc2C(C)(C)C)cc1 | 121 to 122 |
| CCc1nc2c(n1Cc1ccc(OC)cc1)C(=O)N(C)CN2c1ccc(Cl)cc1Cl | 116 to 118 |
